Consider three compounds from patent US5053070A, “Pyrimidine derivatives, preparation processes thereof, herbicide containing the same, and herbicidal compositions containing the same along with other active ingredient” (Mitsui Toatsu Chemicals, Incorporated, priority 1988, dated 1991).

Structures are written as SMILES. In brackets after ≈: the same amount, converted by molar mass.

One data set concerns narrowleaf waterplantain. Nature of the data set: Petri dish test (Test 6). In kind it is in vivo. The note with it: 336 h; seeds on filter paper, 25° C., 14 days; read-out: I80 (ppm). An outline of the steps: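 Narrowleaf waterplantain seeds placed on filter paper pre-treated with compound in acetone (solvent air-dried) in 9 cm Petri dishes with 10 ml water, grown at 25° C in light. Growth was scored after fourteen days as degree of damage against an untreated group.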

For data set [1], the system named is ALS (acetolactate syntase). Nature of the data set: ALS enzyme assay (Test 1). The format is biochemical, pea. The following applies: 1,000 ppm (0.5 mg/0.5 ml). An outline of the steps:
(§1)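 Partially purified ALS from dark-grown pea and barnyardgrass seedlings incubated 1 h at 30° C with pyruvate, TPP, MgCl2 and FAD. Compounds tested at 1,000 ppm (0.5 mg/0.5 ml). Acetoin formed detected colorimetrically at 525 nm via creatine/α-naphthol, relative to blank and acid-stopped controls.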

The subject of a further data set is bulrush. Nature of the data set: Treatment of soil under submerged condition, pre-emergence (Test 4). The following applies: 30 g ai/a granule, 30 days later. The format is in vivo. A digest of the protocol:
(§2)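 Under submerged conditions, pots carrying weed propagules and transplanted young rice (2–3 leaves) were given a granulated test composition one day after planting, ahead of weed emergence. Plants grew in a greenhouse, with weed emergence and crop injury read 30 days after treatment.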

The test system of the next data set is Sagittaria pygmaea. Described as above. In kind it is in vivo. The note with it: 30 g ai/a granule, 30 days later. A digest of the protocol: as §2
Data set [2] relates to barnyardgrass. Described as above. The format is in vivo. The note with it: 30 g ai/a granule, 30 days later. A digest of the protocol: as §2
For the next data set, the system named is soybean. Nature of the data set: Upland soil application test (Test 2), crop injury. The note with it: 30 g ai/a, soil spray before emergence, 30 days later. The format is in vivo. A digest of the protocol: (§3)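 Soil-surface application of water-diluted wettable powder at 10 l per are, made one day after seeding and ahead of weed emergence. Plants stayed in the greenhouse for 30 days; injury was rated by air-dried weight versus untreated pots.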

The subject of another data set is cotton. Nature of the data set: Upland soil application test (Test 2), crop injury. In kind it is in vivo. The note with it: 30 g ai/a, soil spray before emergence, 30 days later. A digest of the protocol: as §3
The next data set deals with peanut. Nature of the data set: Upland soil application test (Test 2), crop injury. The format is in vivo. The note with it: 30 g ai/a, soil spray before emergence, 30 days later. An outline of the steps:
as §3

The subject of another data set is redroot pigweed. Nature of the data set: Upland foliar application test (Test 3). The following applies: 30 g ai/a, foliar spray at 2-3 leaves, 30th day. In kind it is in vivo. A digest of the protocol:
(§4)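 Steps: sow in upland soil, greenhouse; grow to 2-3 leaf stage; spray leaves with water-diluted emulsion at 5 l per are using a ULV sprayer; assess effects on day 30.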

The test system of the next data set is large crabgrass. Nature of the data set: Upland foliar application test (Test 3). In kind it is in vivo. The following applies: 30 g ai/a, foliar spray at 2-3 leaves, 30th day. An outline of the steps: as §4
The subject of another data set is green foxtail. Nature of the data set: Upland foliar application test (Test 3). The format is in vivo. The following applies: 30 g ai/a, foliar spray at 2-3 leaves, 30th day. An outline of the steps: as §4
A further data set has as its system johnsongrass. Nature of the data set: Upland foliar application test (Test 3). The note with it: 30 g ai/a, foliar spray at 2-3 leaves, 30th day. In kind it is in vivo. An outline of the steps: as §4
The test system of data set [3] is barnyardgrass. Nature of the data set: Upland foliar application test (Test 3). The format is in vivo. The note with it: 30 g ai/a, foliar spray at 2-3 leaves, 30th day. An outline of the steps: as §4
In another data set the test system is foxtail meadow. Nature of the data set: Upland foliar application test (Test 3). The following applies: 30 g ai/a, foliar spray at 2-3 leaves, 30th day. In kind it is in vivo. A digest of the protocol:
as §4

In a further data set the test system is common lambsquarters. Nature of the data set: Upland foliar application test (Test 3). The format is in vivo. The note with it: 30 g ai/a, foliar spray at 2-3 leaves, 30th day. An outline of the steps:
as §4

For data set [4], the system named is ALS (acetolactate syntase). Nature of the data set: ALS enzyme assay (Test 1). The format is biochemical, barnyardgrass. The following applies: 1,000 ppm (0.5 mg/0.5 ml). A digest of the protocol: as §1

As for `COc1cc(OC)nc(Oc2ccccc2C=NOCC=Cc2cccc(C)c2)n1` [Compound No. 34, 0-(3-methylcinnamyl)-2-(4,6-dimethoxy-2-pyrimidinyloxy)benzaldoxime], the IC80 in the data set with narrowleaf waterplantain is 2 µg/mL (≈ 4.93 µM). The “Inhibitory activity (%) Pea” value in data set [1] was 0%. Also, in the data set with bulrush, the “Herbicidal effects Bulrush” value is listed as 4 (6-10 (Severe damages)). Moreover, the “Herbicidal effects Sagittaria Pygmaea” value with Sagittaria pygmaea was 5 (0-5 (Death)). Further, the “Herbicidal effects Barnyardgrass” value is listed as 4 (6-10 (Severe damages)) in the data set with barnyardgrass [2] and 5 (0-5 (Death)) in the data set on barnyardgrass [3]. In addition, the “Injury Soybean” value with soybean is 0 (91-100 (No damages)). For the same compound, the “Injury Cotton” value in the data set with cotton is 0 (91-100 (No damages)). Also, in the data set with peanut, the “Injury Peanut” value was 0 (91-100 (No damages)). Moreover, the “Herbicidal effects Redroot pigweed” value in the data set with redroot pigweed is reported as 4 (6-10 (Severe damages)). Further, the “Herbicidal effects Large crabgrass” value with large crabgrass was 4 (6-10 (Severe damages)). Further, the “Herbicidal effects Green foxtail” value in the data set on green foxtail is given as 5 (0-5 (Death)). Besides, the “Herbicidal effects Johnsongrass” value in the data set with johnsongrass is 5 (0-5 (Death)). Moreover, the “Herbicidal effects Foxtail meadow” value in the data set on foxtail meadow is on record as 5 (0-5 (Death)). Moreover, the “Herbicidal effects Common lambsquarters” value in the data set on common lambsquarters was 4 (6-10 (Severe damages)). Further, the “Inhibitory activity (%) Barnyardgrass” value in data set [4] is 91%.
In the case of `COc1cc(OC)nc(Oc2ccccc2C=NOCC#Cc2ccccc2)n1` [compound 42], the IC80 with narrowleaf waterplantain is 17 µg/mL (≈ 43.7 µM). The “Inhibitory activity (%) Pea” value in data set [1] amounted to 0%. The “Herbicidal effects Bulrush” value in the data set on bulrush was 4 (6-10 (Severe damages)). Also, the “Herbicidal effects Sagittaria Pygmaea” value in the data set on Sagittaria pygmaea was 5 (0-5 (Death)). Also, the “Herbicidal effects Barnyardgrass” value in the data set on barnyardgrass [2] and with barnyardgrass [3] was 5 (0-5 (Death)) in each case. Besides, the “Injury Soybean” value in the data set on soybean is listed as 0 (91-100 (No damages)). For the same compound, the “Injury Cotton” value in the data set on cotton was 0 (91-100 (No damages)). Also, the “Injury Peanut” value in the data set on peanut is 0 (91-100 (No damages)). For the same compound, the “Herbicidal effects Redroot pigweed” value in the data set on redroot pigweed was 5 (0-5 (Death)). In addition, in the data set on large crabgrass, the “Herbicidal effects Large crabgrass” value is 3 (11-40 (Medium damages)). In addition, the “Herbicidal effects Green foxtail” value in the data set with green foxtail was 5 (0-5 (Death)). For the same compound, the “Herbicidal effects Johnsongrass” value in the data set on johnsongrass is on record as 5 (0-5 (Death)). Moreover, the “Herbicidal effects Foxtail meadow” value in the data set with foxtail meadow was 5 (0-5 (Death)). For the same compound, the “Herbicidal effects Common lambsquarters” value in the data set on common lambsquarters is listed as 4 (6-10 (Severe damages)). In addition, in data set [4], the “Inhibitory activity (%) Barnyardgrass” value was 93%.
Take `COc1cc(OC)nc(Oc2ccccc2C=NOCC=Cc2c(F)cccc2F)n1` [compound 33]: the IC80 with narrowleaf waterplantain was 8 µg/mL (≈ 18.7 µM). Besides, the “Inhibitory activity (%) Pea” value in [1] is recorded as 0%. Further, in the data set with bulrush, the “Herbicidal effects Bulrush” value is 4 (6-10 (Severe damages)). In addition, in the data set with Sagittaria pygmaea, the “Herbicidal effects Sagittaria Pygmaea” value was 5 (0-5 (Death)). The results for the “Herbicidal effects Barnyardgrass” value in the data set with barnyardgrass [2] and in the data set on barnyardgrass [3] were 4 (6-10 (Severe damages)) and 5 (0-5 (Death)), respectively. Also, the “Injury Soybean” value in the data set with soybean is reported as 0 (91-100 (No damages)). In addition, the “Injury Cotton” value with cotton is 0 (91-100 (No damages)). In addition, the “Injury Peanut” value in the data set on peanut was 0 (91-100 (No damages)). For the same compound, the “Herbicidal effects Redroot pigweed” value in the data set with redroot pigweed is given as 4 (6-10 (Severe damages)). In the data set with large crabgrass, the “Herbicidal effects Large crabgrass” value was 5 (0-5 (Death)). Moreover, the “Herbicidal effects Green foxtail” value with green foxtail is 5 (0-5 (Death)). Moreover, the “Herbicidal effects Johnsongrass” value with johnsongrass is on record as 5 (0-5 (Death)). Besides, in the data set on foxtail meadow, the “Herbicidal effects Foxtail meadow” value was 5 (0-5 (Death)). Further, the “Herbicidal effects Common lambsquarters” value in the data set with common lambsquarters is 4 (6-10 (Severe damages)). The “Inhibitory activity (%) Barnyardgrass” value in [4] was 91%.
